# Assay results as given in patent US8344028B2, “Gamma-amino-butyric acid derivatives as GABAB receptor ligands” (XenoPort, Inc., priority 2009, dated 2013).
# Target: GABAB receptor (Homo sapiens, UniProt Q9UBS5)
# Assay: GABAB receptor agonist or partial agonist activity by binding, electrophysiology, cAMP and/or Ca2+ assay methods (Examples 83-86)
# Format: cell-based
# Procedure: An assay using rat cerebral cortex membranes was used to determine the affinity of GABAB receptor ligands for the GABAB receptor.
# An assay buffer of 50 mM Tris pH 7.4 was prepared with 100 μM of isoguvacine, to block GABAA interactions. The assay buffer with isoguvacine was used for dilution of membranes, compounds, and radiolabel.
# Rat cerebral cortex membranes were diluted in assay buffer at 1 mg/mL and aliquoted into a 96-well plate at 900 μL/well. Buffer or test compound were added at 20-times final concentration in the buffer at 50 μL/well. Membranes and test compounds or buffer were incubated for 10 min. at room temperature. Radiolableled [S—(R*,R*)]-[3-[[1-(3,4-dichlorophenyl)ethyl]amino]-2-hydroxypropyl](cyclohexylmethyl) phosphinic acid (CGP54626) was then added at 50 μL/well in the buffer at 1-10 nM concentration in 50 μl. […] The assay mixture was filtered using Brandell filtration apparatus and GFB filters, washed twice with 3 mL of 4° C., 50 mM Tris pH 7.4, buffer without isoguvacine. The filters were then dried at room temperature and the dried filters punched out and placed in individual vials. Three (3) mL of scintillation fluid was added to each vial and the radiolabel counted on the scintillation counter. The inverse amount of radiolabel was indicative of binding of a test compound to the GABAB receptor.
# The following procedure was used to determine the level of intracellular cAMP. Recombinant HEK cells expressing the GABAB R1a2 receptor were used in the experiments. cAMP levels were measured using a cAMP XS^+ HitHunter™ Chemiluminescence Assay Kit (90-0075-02, GE Healthcare Biosciences Corp.). Cells were seeded overnight at 5,000 cells per well, in black, clear bottom 96-well plates. The following morning, cells were washed twice with 100 μL PBS per well. Forskolin was weighed out and dissolved in DMSO to a final concentration 100 mM. One-hundred (100) μM forskolin solutions were prepared in PBS with and without test compound at 1-times final concentration. Thirty (30) μL of the test solutions were added to the wells and incubated for 1 h at room temperature. The cAMP concentration was determined according to the protocol described in the cAMP assay kit, maintaining the plate at room temperature and in the dark. […] Each well was read for 6 seconds. The untransformed data was then analyzed.
# The following procedure was used to determine the GABAB receptor agonist activity of a compound as reflected by activation of Ca^2+ signaling. HEK TREx cells expressing GABABR1a2 under tetracycline induction control, and Gqi chimeric protein (expressed constitutively), allowing GABABR coupling through the Ca^2+ signaling pathway were used in the experiments.
# Cells were seeded in media containing tetracycline overnight at 100,000 cells/well, in black, clear-bottom, 96-well plates. The following morning, cells were washed twice with 100 μL HBSS buffer per well. Fluorescent Ca^2+ indicator dye was prepared using the materials and procedure described in the F362056 Fluo-4 NW Calcium Assay Kit (Invitrogen, Carlsbad, Calif.). Ten (10) mL of kit buffer and 100 μl of kit Probenecid were added to individual kit dye vials, and rolled back and forth several times to dissolve the dye. Cells were then loaded into the dye solution at 50 μL per well. The cells and dye were incubated for 30 min at 37° C., and then incubated for an additional 30 min at room temperature in the dark. Test compounds are dissolved in HBSS buffer at twice final concentration. Duplicate wells were used for each unique condition. Solution containing the test compound was added to the wells using a FLEXStation II (Molecular Devices, Sunnyvale, Calif.). Using the instrument in kinetic mode in which each well was read every 2 sec over a total collection time of 50 sec fluorescence was measured using an excitation wavelength 494 nm and a detection wavelength of 516 nm. A normalized fluorescence value for each well was calculated using the following procedure.
# Sequence of GABAB receptor (Q9UBS5 20-961): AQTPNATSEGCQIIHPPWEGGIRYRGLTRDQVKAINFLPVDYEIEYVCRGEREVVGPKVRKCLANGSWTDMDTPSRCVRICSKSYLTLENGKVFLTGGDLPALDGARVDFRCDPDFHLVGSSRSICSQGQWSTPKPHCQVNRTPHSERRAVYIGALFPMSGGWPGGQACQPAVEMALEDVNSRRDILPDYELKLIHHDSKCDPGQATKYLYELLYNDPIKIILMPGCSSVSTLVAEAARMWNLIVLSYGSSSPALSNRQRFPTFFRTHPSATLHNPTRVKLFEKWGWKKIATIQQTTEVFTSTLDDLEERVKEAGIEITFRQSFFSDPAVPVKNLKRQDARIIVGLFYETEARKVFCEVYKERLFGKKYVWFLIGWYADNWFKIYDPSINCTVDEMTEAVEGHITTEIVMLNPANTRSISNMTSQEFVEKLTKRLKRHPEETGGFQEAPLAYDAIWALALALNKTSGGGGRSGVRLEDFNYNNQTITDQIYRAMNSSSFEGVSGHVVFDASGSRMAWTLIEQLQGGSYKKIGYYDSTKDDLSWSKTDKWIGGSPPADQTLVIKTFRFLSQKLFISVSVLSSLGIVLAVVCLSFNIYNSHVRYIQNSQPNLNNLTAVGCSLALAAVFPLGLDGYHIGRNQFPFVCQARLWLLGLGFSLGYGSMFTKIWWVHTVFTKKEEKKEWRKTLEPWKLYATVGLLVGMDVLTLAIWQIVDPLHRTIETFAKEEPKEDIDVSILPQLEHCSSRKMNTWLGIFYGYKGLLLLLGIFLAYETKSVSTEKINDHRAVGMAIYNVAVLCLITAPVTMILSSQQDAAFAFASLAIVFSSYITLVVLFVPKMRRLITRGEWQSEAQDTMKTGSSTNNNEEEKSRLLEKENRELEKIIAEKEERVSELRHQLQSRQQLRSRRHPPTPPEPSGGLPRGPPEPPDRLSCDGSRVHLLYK
# Sequence of GABAB receptor (O75899 42-941 partner): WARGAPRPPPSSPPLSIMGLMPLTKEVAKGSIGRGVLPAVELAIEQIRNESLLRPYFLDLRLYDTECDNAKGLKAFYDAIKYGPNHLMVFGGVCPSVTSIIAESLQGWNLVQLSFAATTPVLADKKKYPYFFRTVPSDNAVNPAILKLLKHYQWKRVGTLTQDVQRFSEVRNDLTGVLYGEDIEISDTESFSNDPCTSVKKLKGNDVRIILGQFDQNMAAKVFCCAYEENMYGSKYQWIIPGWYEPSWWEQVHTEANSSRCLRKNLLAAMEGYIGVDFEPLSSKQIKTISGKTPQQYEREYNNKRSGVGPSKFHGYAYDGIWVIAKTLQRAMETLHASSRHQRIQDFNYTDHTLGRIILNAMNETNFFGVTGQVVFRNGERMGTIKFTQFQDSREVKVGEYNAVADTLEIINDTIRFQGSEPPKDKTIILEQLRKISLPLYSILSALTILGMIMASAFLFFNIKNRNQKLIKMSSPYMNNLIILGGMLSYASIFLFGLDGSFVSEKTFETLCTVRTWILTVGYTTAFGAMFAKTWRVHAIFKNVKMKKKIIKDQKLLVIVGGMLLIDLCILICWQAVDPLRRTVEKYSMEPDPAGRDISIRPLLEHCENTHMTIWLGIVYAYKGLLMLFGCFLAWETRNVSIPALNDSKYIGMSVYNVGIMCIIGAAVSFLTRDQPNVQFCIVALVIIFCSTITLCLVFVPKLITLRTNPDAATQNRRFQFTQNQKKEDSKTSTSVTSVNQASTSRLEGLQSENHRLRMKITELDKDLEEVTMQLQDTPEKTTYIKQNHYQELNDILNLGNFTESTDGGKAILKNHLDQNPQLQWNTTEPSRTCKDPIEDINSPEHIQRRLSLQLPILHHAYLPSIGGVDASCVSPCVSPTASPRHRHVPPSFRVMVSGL
row,SMILES,GABAB receptor agonist or partial agonist activity
1,Cc1ccc(-c2cc([C@H](CN)CC(=O)O)ccc2Cl)cc1C#N.Cl [(3R)-4-amino-3-[4-chloro-3-(3-cyano-4-methylphenyl)phenyl]butanoic acid hydrochloride],agonist or partial agonist activity
2,"Cl.NC[C@H](CC(=O)O)c1ccc(Cl)cc1-c1cccnc1 [Example 8, (3R)-4-Amino-3-[4-chloro-2-(3-pyridyl)phenyl]butanoic acid hydrochloride]",agonist or partial agonist activity
3,"COc1cccc(-c2cc([C@H](CN)CC(=O)O)ccc2Cl)c1.Cl [Example 35, (3R)-4-Amino-3-[4-chloro-3-(3-methoxyphenyl)phenyl]butanoic acid hydrochloride]",agonist or partial agonist activity
4,Cl.NC[C@H](CC(=O)O)c1ccc(Cl)c(-c2ccccc2C(=O)O)c1 [2-{5-[(1R)-2-amino-1-(carboxymethyl)ethyl]-2-chlorophenyl}benzoic acid hydrochloride],agonist or partial agonist activity
5,Cl.NC[C@@H](CC(=O)O)c1ccc(Cl)c(NCc2ccncc2)c1 [(3S)-4-amino-3-{4-chloro-3-[(4-pyridylmethyl)amino]phenyl}butanoic acid hydrochloride],agonist or partial agonist activity
6,Cl.NC[C@H](CC(=O)O)c1ccc(Cl)cc1/C=C/c1ccccc1 [3-[2-((1E)-2-phenylvinyl)-4-chlorophenyl](3R)-4-aminobutanoic acid hydrochloride],agonist or partial agonist activity
7,"Cl.NC[C@H](CC(=O)O)c1cccc(-c2cccc(C(=O)O)c2)c1 [Example 51, 3-{3-[(1R)-2-Amino-1-(carboxymethyl)ethyl]phenyl}benzoic acid hydrochloride]",agonist or partial agonist activity
8,Cl.NC[C@@H](CC(=O)O)c1ccc(Cl)c(-c2cccc(C(=O)O)c2)c1 [3-{5-[(1S)-2-amino-1-(carboxymethyl)ethyl]-2-chlorophenyl}benzoic acid hydrochloride],agonist or partial agonist activity
9,"Cl.NC[C@H](CC(=O)O)c1ccc(Cl)c(-c2cccc(CC(=O)O)c2)c1 [Example 43, (3R)-4-Amino-3-{3-[3-(carboxymethyl)phenyl]-4-chlorophenyl}butanoic acid hydrochloride]",agonist or partial agonist activity
10,Cl.NC[C@H](CC(=O)O)c1ccc(Cl)c(NCc2ccccn2)c1 [Example 58],agonist or partial agonist activity
11,Cl.N#Cc1cc(O)cc(-c2cc([C@H](CN)CC(=O)O)ccc2Cl)c1 [(3R)-4-amino-3-[4-chloro-3-(3-cyano-5-hydroxyphenyl)phenyl]butanoic acid hydrochloride],agonist or partial agonist activity
12,"Cl.NC[C@H](CC(=O)O)c1ccc(Cl)c(-c2ccccc2)c1 [Example 39, (3R)-4-Amino-3-(4-chloro-3-phenyl-phenyl)butanoic acid hydrochloride]",agonist or partial agonist activity
13,"NC[C@H](CC(=O)O)c1ccc(Cl)c(Nc2ccccc2C(=O)O)c1 [Example 13, 2-({5-[(1R)-2-Amino-1-(carboxymethyl)ethyl]-2-chlorophenyl}amino)benzoic acid]",agonist or partial agonist activity
14,Cl.NC[C@H](CC(=O)O)c1ccc(Cl)c(NCc2ccncc2Cl)c1 [(3R)-4-amino-3-(4-chloro-3-{[(3-chloro(4-pyridyl))methyl]amino}phenyl)butanoic acid hydrochloride],agonist or partial agonist activity
15,Cl.N#Cc1ccccc1CNc1cc([C@H](CN)CC(=O)O)ccc1Cl [(3R)-4-amino-3-(4-chloro-3-{[(2-cyanophenyl)methyl]amino}phenyl)butanoic acid hydrochloride],agonist or partial agonist activity
16,Cl.NC[C@H](CC(=O)O)c1ccc(Cl)c(CCc2ccccn2)c1 [(3R)-4-amino-3-[4-chloro-3-(2-(2-pyridyl)ethyl)phenyl]butanoic acid hydrochloride],agonist or partial agonist activity
17,"Cl.NC[C@H](CC(=O)O)c1ccc(Cl)c(-c2ccc(Cl)cc2Cl)c1 [(3R)-4-amino-3-[4-chloro-3-(2,4-dichlorophenyl)phenyl]butanoic acid hydrochloride]",agonist or partial agonist activity
18,Cl.NC[C@H](CC(=O)O)c1ccc(Cl)c(-c2cc(Cl)ccn2)c1 [(3R)-4-amino-3-[4-chloro-3-(4-chloro(2-pyridyl))phenyl]butanoic acid hydrochloride],agonist or partial agonist activity
19,Cl.NC[C@H](CC(=O)O)c1ccc(Cl)c(NS(=O)(=O)c2ccccn2)c1 [(3R)-4-amino-3-{4-chloro-3-[(2-pyridylsulfonyl)amino]phenyl}butanoic acid hydrochloride],agonist or partial agonist activity
20,Cl.N#Cc1cccc(-c2cc([C@@H](CN)CC(=O)O)ccc2Cl)c1 [(3S)-4-amino-3-[4-chloro-3-(3-cyanophenyl)phenyl]butanoic acid hydrochloride],agonist or partial agonist activity
21,N#Cc1cccc(C(=O)Nc2cc([C@H](CN)CC(=O)O)ccc2Cl)c1 [(3R)-4-amino-3-{4-chloro-3-[(3-cyanophenyl)carbonylamino]phenyl}butanoic acid],agonist or partial agonist activity
22,Cl.NC[C@H](CC(=O)O)c1ccc(Cl)c(/C=C/c2cccc(C(=O)O)c2)c1 [3-((1E)-2-{5-[(1R)-2-amino-1-(carboxymethyl)ethyl]-2-chlorophenyl}vinyl)benzoic acid hydrochloride],agonist or partial agonist activity
23,"Cl.NC[C@H](CC(=O)O)c1ccc(Cl)c(NCc2ccoc2)c1 [Example 64, (3R)-4-Amino-3-{4-chloro-3-[(3-furylmethyl)amino]phenyl}butanoic acid hydrochloride]",agonist or partial agonist activity
24,Cl.NC[C@H](CC(=O)O)c1ccc(Cl)c(-c2ccc(C(=O)O)nc2)c1 [5-{5-[(1R)-2-amino-1-(carboxymethyl)ethyl]-2-chlorophenyl}pyridine-2-carboxylic acid hydrochloride],agonist or partial agonist activity
25,Cl.N#Cc1cc(-c2cc([C@H](CN)CC(=O)O)ccc2Cl)ccc1F [(3R)-4-amino-3-[4-chloro-3-(3-cyano-4-fluorophenyl)phenyl]butanoic acid hydrochloride],agonist or partial agonist activity
26,"Cl.NC[C@H](CC(=O)O)c1ccc(Cl)c(NCc2ccc(C(=O)O)cc2)c1 [Example 63, 4-[({5-[(1R)-2-Amino-1-(carboxymethyl)ethyl]-2-chlorophenyl}amino)methyl]benzoic acid hydrochloride]",agonist or partial agonist activity
27,Cl.NC[C@@H](CC(=O)O)c1ccc(Cl)c(-c2cccnc2)c1 [(3S)-4-amino-3-(4-chloro-3-(3-pyridyl)phenyl)butanoic acid hydrochloride],agonist or partial agonist activity
